Assay [1] has as its system Spontaneously hypertensive rats (SHR). As to the kind of experiment: Acute Efficacy in Spontaneously Hypertensive Rats (SHR), telemetry blood pressure. The assay is classed as in vivo, rat. The conditions noted are these: SHR male. The text has this: Acute Efficacy in Spontaneously Hypertensive Rats (SHR)
Spontaneously hypertensive rats (SHR, male, Charles River) were implanted with DSI TA11PA-C40 telemetry device (Data Sciences, Inc., St. Paul, Minn.) under isoflurane or ketamine/metomidine anesthesia. The telemetry unit catheter was inserted into the descending aorta via the femoral artery and the telemetry device was implanted subcutaneously in the left flank area. Animals were allowed to recover from surgery for 14 days before the start of any studies. Blood pressure, heart rate, and activity signals from conscious, freely moving rats were recorded continuously for 30 seconds every 10 minutes. On the day prior to administration of compound, a single oral dose of vehicle (10% transcutol/20% Cremophor/70% water) was administered to all animals to establish baseline control data. The blood pressure lowering efficacy of compound (PO) or vehicle was evaluated following a single oral gavage. Data were collected as hourly averages, and changes in blood pressure were calculated by subtracting control baseline data on an hourly basis. Animals were maintained on normal diet with a 12 hour light-dark cycle.
Maximum peak decreases of systolic blood pressure (SBP) in SHR at a particular P.O. dose (mpk milligrams per kilogram) for the following representative compounds are provided. • Category A=SBP in SHRs<20 mmHg; Category B=SBP in SHRs 20-40 mmHg; • Category C=SBP in SHRs>40 mmHg

In the next assay the target is T1, sGC α1/β1 heterodimer (Homo sapiens, UniProt Q02108+Q02153).
T1 construct: expressed in transfected cells; host or cells: CHO-K1 (clone #7, CHO-K1/sGC)
T1 sequence (Q02108 1-690): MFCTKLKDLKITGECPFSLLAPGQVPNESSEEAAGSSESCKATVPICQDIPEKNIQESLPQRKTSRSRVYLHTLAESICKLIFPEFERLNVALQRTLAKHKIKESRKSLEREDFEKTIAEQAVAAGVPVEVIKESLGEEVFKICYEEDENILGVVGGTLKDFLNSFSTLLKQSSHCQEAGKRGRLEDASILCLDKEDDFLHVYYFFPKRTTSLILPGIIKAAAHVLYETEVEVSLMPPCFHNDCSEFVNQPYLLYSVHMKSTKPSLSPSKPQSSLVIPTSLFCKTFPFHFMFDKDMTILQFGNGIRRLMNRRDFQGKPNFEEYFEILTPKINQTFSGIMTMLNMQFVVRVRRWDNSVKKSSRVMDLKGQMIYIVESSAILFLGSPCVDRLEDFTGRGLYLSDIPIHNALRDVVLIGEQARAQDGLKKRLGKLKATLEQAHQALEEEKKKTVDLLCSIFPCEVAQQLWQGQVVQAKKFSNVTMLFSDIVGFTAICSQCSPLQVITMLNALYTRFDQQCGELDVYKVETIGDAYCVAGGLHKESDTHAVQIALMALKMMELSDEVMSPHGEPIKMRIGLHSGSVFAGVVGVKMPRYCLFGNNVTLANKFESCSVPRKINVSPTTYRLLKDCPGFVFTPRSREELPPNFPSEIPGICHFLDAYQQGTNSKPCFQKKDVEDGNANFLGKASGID
T1 sequence (Q02153 1-619): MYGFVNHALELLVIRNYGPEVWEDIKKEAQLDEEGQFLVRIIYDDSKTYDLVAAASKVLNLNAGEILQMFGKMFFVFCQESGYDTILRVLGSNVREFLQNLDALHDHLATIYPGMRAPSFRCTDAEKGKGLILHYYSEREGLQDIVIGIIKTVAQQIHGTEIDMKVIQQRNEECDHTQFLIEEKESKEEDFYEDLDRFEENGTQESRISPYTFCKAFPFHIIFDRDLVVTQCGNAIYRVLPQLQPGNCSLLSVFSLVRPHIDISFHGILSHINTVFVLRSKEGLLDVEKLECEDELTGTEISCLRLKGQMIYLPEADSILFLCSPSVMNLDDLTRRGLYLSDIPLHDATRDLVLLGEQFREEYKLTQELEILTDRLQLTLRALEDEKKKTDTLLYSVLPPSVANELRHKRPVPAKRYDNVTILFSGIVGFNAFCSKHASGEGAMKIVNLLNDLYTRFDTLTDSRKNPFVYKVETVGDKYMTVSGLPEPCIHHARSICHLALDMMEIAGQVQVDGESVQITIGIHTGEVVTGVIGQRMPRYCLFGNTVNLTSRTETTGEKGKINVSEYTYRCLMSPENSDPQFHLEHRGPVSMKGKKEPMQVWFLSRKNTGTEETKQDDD
As to the kind of experiment: Cell-Based sGC Functional Assay (CASA Assay), cGMP by HTRF in CHO-K1/sGC cells. The settings on record: for Emax: CHO-K1, percent activation relative to maximum cGMP production of Compound A (= 100%), read-out: % Act.; for EC50: cGMP production, 1 hr at 37° C., 4P fit, presence or absence of 1 μM DETA-NO not given, read-out: IP (nM) (inflection point). An outline of the steps: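 CHO-K1 cells stably expressing human sGC α1/β1, in EBSS buffer with 5 mM MgCl2, 10 mM HEPES, 0.05% BSA and 0.5 mM IBMX, incubated with compound (2.5% DMSO) ± 1 μM DETA-NO, 1 h, 37 °C. Intracellular cGMP read by HTRF; activity as % of reference activator maximum, IP from 4-parameter fit.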
On the technique in general: TR-FRET usually uses a lanthanide donor and a delayed reading to cut background.

Structures are written as SMILES.

For `CC1(c2ccc(F)cc2)C(=O)Nc2nc(-c3cn4ccnc4c(CC4CCC4)n3)nc(O)c21` (stereo not drawn) [Example 29A, 2-(8-(cyclobutylmethyl)imidazo [1,2-a]pyrazin-6-yl)-5-(4-fluorophenyl)-4-hydroxy-5-methyl-5H-pyrrolo[2,3-d]pyrimidin-6(7H)-one], in assay [1] (single oral dose 3.0 mpk P.O.), the “Cat. (maximum peak decrease of systolic blood pressure (SBP) in SHR)” value was “B (Category B=SBP in SHRs 20-40 mmHg)”. Moreover, at sGC α1/β1 heterodimer, the Emax is 92% and the EC50 came to 225 nM.
In the case of `CC1(c2ccc(F)cn2)C(=O)Nc2nc(-c3cn4ccnc4c(Cc4ccc(F)cc4)n3)ncc21` (stereo not drawn) [Example 5B, 2-(8-(4-fluorobenzyl)imidazo[1,2-a]pyrazin-6-yl)-5-(5-fluoropyridin-2-yl)-5-methyl-5H-pyrrolo[2,3-d]pyrimidin-6(7H)-one], the “Cat. (maximum peak decrease of systolic blood pressure (SBP) in SHR)” value in assay [1] (single oral dose 0.3 mpk P.O.) is given as “B (Category B=SBP in SHRs 20-40 mmHg)”. For the same compound, at sGC α1/β1 heterodimer, the Emax is 117% and the EC50 turned out to be 30 nM.
Regarding `CC1(C(=O)NC2CC2)C(=O)Nc2nc(-c3cn4ccnc4c(Cc4ccc(F)cc4)n3)ncc21` (single isomer, unassigned) [Example 67A, N-Cyclopropyl-2-(8-(4-fluorobenzyl)imidazo[1,2-a]pyrazin-6-yl)-5-methyl-6-oxo-6,7-dihydro-5H-pyrrolo[2,3-d]pyrimidine-5-carboxamide], the “Cat. (maximum peak decrease of systolic blood pressure (SBP) in SHR)” value in assay [1] (single oral dose 1.0 mpk P.O.) was “B (Category B=SBP in SHRs 20-40 mmHg)”. In addition, at sGC α1/β1 heterodimer, the Emax amounted to 167% and the EC50 amounted to 106 nM.
On the same counts, the results for `CC1(c2ccc(Cl)c(F)c2)C(=O)Nc2nc(-c3cn4ccnc4c(CCC(F)(F)F)n3)ncc21` (stereo not drawn) [Example 56B, 5-(4-chloro-3-fluorophenyl)-5-methyl-2-(8-(3,3,3-trifluoropropyl)imidazo[1,2-a]pyrazin-6-yl)-5H-pyrrolo[2,3-d]pyrimidin-6(7H)-one] are “A (Category A=SBP in SHRs<20 mmHg)”, 95% and 70 nM.
Consider `CC1(c2ccc(F)cc2)C(=O)Nc2nc(-c3cn4ccnc4c(CCCC(F)(F)F)n3)nc(O)c21` (stereo not drawn) [Example 30A, 5-(4-fluorophenyl)-4-hydroxy-5-methyl-2-(8-(4,4,4-trifluorobutyl)imidazo[1,2-a]pyrazin-6-yl)-5H-pyrrolo[2,3-d]pyrimidin-6(7H)-one], for which the “Cat. (maximum peak decrease of systolic blood pressure (SBP) in SHR)” value in assay [1] (single oral dose 1.0 mpk P.O.) is “B (Category B=SBP in SHRs 20-40 mmHg)”. Also, at sGC α1/β1 heterodimer, the Emax was 89% and the EC50 stood at 436 nM.
On the same counts, the results for `CCCCc1nc(-c2ncc3c(n2)NC(=O)C3(c2ccc(Cl)cc2)C2CC2)cn2ccnc12` (stereo not drawn) [Example 49B, 2-(8-butylimidazo[1,2-a]pyrazin-6-yl)-5-(4-chlorophenyl)-5-cyclopropyl-5H-pyrrolo[2,3-d]pyrimidin-6(7H)-one] are “B (Category B=SBP in SHRs 20-40 mmHg)”, 157% and 24 nM.
In the case of `O=C1Nc2nc(-c3cn4ccnc4c(CCCC(F)(F)F)n3)ncc2C1(c1ccc(F)c(F)c1)C1CC1` (stereo not drawn) [Example 44A, 5-cyclopropyl-5-(3,4-difluorophenyl)-2-(8-(4,4,4-trifluorobutyl)imidazo[1,2-a]pyrazin-6-yl)-5H-pyrrolo[2,3-d]pyrimidin-6(7H)-one], the “Cat. (maximum peak decrease of systolic blood pressure (SBP) in SHR)” value in assay [1] (single oral dose 1.0 mpk P.O.) is recorded as “B (Category B=SBP in SHRs 20-40 mmHg)”. At sGC α1/β1 heterodimer, the Emax stood at 150% and the EC50 is 114 nM.
For `CCCCc1nc(-c2nc(O)c3c(n2)NC(=O)C3(c2ccc(Cl)cc2)C2CC2)cn2ccnc12` (stereo not drawn) [Example 23B, 2-(8-butylimidazo[1,2-a]pyrazin-6-yl)-5-(4-chlorophenyl)-5-cyclopropyl-4-hydroxy-5H-pyrrolo[2,3-d]pyrimidin-6(7H)-one], the “Cat. (maximum peak decrease of systolic blood pressure (SBP) in SHR)” value in assay [1] (single oral dose 1.0 mpk P.O.) is recorded as “A (Category A=SBP in SHRs<20 mmHg)”. At sGC α1/β1 heterodimer, the Emax stood at 146% and the EC50 is 204 nM.
As for `CC1(c2ccc(F)cc2)C(=O)Nc2nc(-c3cn4ccnc4c(CCCC(F)(F)F)n3)ncc21` (stereo not drawn) [Example 64A, 5-(4-fluorophenyl)-5-methyl-2-(8-(4,4,4-trifluorobutyl)imidazo[1,2-a]pyrazin-6-yl)-5H-pyrrolo[2,3-d]pyrimidin-6(7H)-one], the “Cat. (maximum peak decrease of systolic blood pressure (SBP) in SHR)” value in assay [1] (single oral dose 0.3 mpk P.O.) was “B (Category B=SBP in SHRs 20-40 mmHg)”. Besides, on sGC α1/β1 heterodimer, the Emax was 141% and the EC50 was 35 nM.
Turning to `CC1(c2ccc(F)cn2)C(=O)Nc2nc(-c3cn4ccnc4c(CCC(F)(F)C(F)(F)F)n3)nc(O)c21` (single isomer, unassigned) [Example 18B, 5-(5-fluoropyridin-2-yl)-4-hydroxy-5-methyl-2-(8-(3,3,4,4,4-pentafluorobutyl)imidazo[1,2-a]pyrazin-6-yl)-5H-pyrrolo[2,3-d]pyrimidin-6(7H)-one], the “Cat. (maximum peak decrease of systolic blood pressure (SBP) in SHR)” value in assay [1] (single oral dose 3.0 mpk P.O.) was “A (Category A=SBP in SHRs<20 mmHg)”. At sGC α1/β1 heterodimer, the Emax is 78% and the EC50 was 365 nM.
As to `CC1(c2ccc(F)cc2)C(=O)Nc2nc(-c3cn4ccnc4c(CCC(F)(F)C(F)(F)F)n3)nc(C(N)=O)c21` (stereo not drawn) [Example 86A, 5-(4-Fluorophenyl)-5-methyl-6-oxo-2-(8-(3,3,4,4,4-pentafluorobutyl)imidazo[1,2-a]pyrazin-6-yl)-6,7-dihydro-5H-pyrrolo[2,3-d]pyrimidine-4-carboxamide], in assay [1] (single oral dose 1.0 mpk P.O.), the “Cat. (maximum peak decrease of systolic blood pressure (SBP) in SHR)” value is reported as “B (Category B=SBP in SHRs 20-40 mmHg)”. On sGC α1/β1 heterodimer, the Emax stood at 109% and the EC50 was 57 nM.
`CC1(c2ccc(F)cn2)C(=O)Nc2nc(-c3cn4ccnc4c(CC4CCC4)n3)nc(O)c21` (stereo not drawn) [Example 31B, 2-(8-(cyclobutylmethyl)imidazo [1,2-a]pyrazin-6-yl)-5-(5-fluoropyridin-2-yl)-4-hydroxy-5-methyl-5H-pyrrolo[2,3-d]pyrimidin-6(7H)-one]: the “Cat. (maximum peak decrease of systolic blood pressure (SBP) in SHR)” value in assay [1] (single oral dose 3.0 mpk P.O.) was “B (Category B=SBP in SHRs 20-40 mmHg)”. Also, on sGC α1/β1 heterodimer, the Emax came to 82% and the EC50 was found to be 459 nM.
On to `CCCc1nc(-c2ncc3c(n2)NC(=O)C3(C)c2ccc(Cl)c(F)c2)cn2ccnc12` (stereo not drawn) [Example 38B, 5-(4-chloro-3-fluorophenyl)-5-methyl-2-(8-propylimidazo[1,2-a]pyrazin-6-yl)-5H-pyrrolo[2,3-d]pyrimidin-6(7H)-one], for which the “Cat. (maximum peak decrease of systolic blood pressure (SBP) in SHR)” value in assay [1] (single oral dose 1.0 mpk P.O.) was “A (Category A=SBP in SHRs<20 mmHg)”. In addition, on sGC α1/β1 heterodimer, the Emax was found to be 135% and the EC50 was determined as 173 nM.
